From ChEMBL document CHEMBL3044624, “Cycloate, an inhibitor of fatty acid elongase, modulates the metabolism of very-long-side-chain alkylresorcinols in rye seedlings” (Pest Manag Sci, 2009)

Legend:
Secale cereale [1] = assay: Change in alkylresorcinol homologue composition in dry shoots of etiolated Secale cereale (rye) seedlings grown from compound-treated seeds at 15 +/-2 degC assessed as C25:0 content at 46 uM by GC/EI-MS analysis (reference value: 0.11 mg/kg dry weight); type: functional
Secale cereale [2] = assay: Change in alkylresorcinol homologue composition in dry shoots of green Secale cereale (rye) seedlings grown from compound-treated seeds at 29 +/-2 degC assessed as C21:1 content at 46 uM by GC/EI-MS analysis (reference value: 0.04 mg/kg dry weight); type: functional
Secale cereale [3] = assay: Change in alkylresorcinol homologue composition in dry shoots of green Secale cereale (rye) seedlings grown from compound-treated seeds at 15 +/-2 degC assessed as C19:1 content at 46 uM by GC/EI-MS analysis (reference value: 0.23 mg/kg dry weight); type: functional
Secale cereale [4] = assay: Change in alkylresorcinol homologue composition in dry shoots of green Secale cereale (rye) seedlings grown from compound-treated seeds at 22 +/-2 degC assessed as C19:1 content at 46 uM by GC/EI-MS analysis (reference value: 0.20 mg/kg dry weight); type: functional
Secale cereale [5] = assay: Change in alkylresorcinol homologue composition in dry shoots of green Secale cereale (rye) seedlings grown from compound-treated seeds at 29 +/-2 degC assessed as C19:1 content at 46 uM by GC/EI-MS analysis (Rvb =0.17 mg/kg dry weight); type: functional
Secale cereale [6] = assay: Change in alkylresorcinol homologue composition in dry shoots of green Secale cereale (rye) seedlings grown from compound-treated seeds at 22 +/-2 degC assessed as C17:0 content at 46 uM by GC/EI-MS analysis (reference value: 0.93 mg/kg dry weight); type: functional
Secale cereale [7] = assay: Change in alkylresorcinol homologue composition in dry shoots of green Secale cereale (rye) seedlings grown from compound-treated seeds at 29 +/-2 degC assessed as C17:0 content at 46 uM by GC/EI-MS analysis (reference value: 0.75 mg/kg dry weight); type: functional
Secale cereale [8] = assay: Change in alkylresorcinol homologue composition in dry shoots of green Secale cereale (rye) seedlings grown from compound-treated seeds at 15 +/-2 degC assessed as C15:0 content at 46 uM by GC/EI-MS analysis (reference value: 0.24 mg/kg dry weight); type: functional
Secale cereale [9] = assay: Change in alkylresorcinol homologue composition in dry shoots of green Secale cereale (rye) seedlings grown from compound-treated seeds at 22 +/-2 degC assessed as C15:0 content at 46 uM by GC/EI-MS analysis (reference value: 0.24 mg/kg dry weight); type: functional
Secale cereale [10] = assay: Change in alkylresorcinol content in dry shoots of green Secale cereale (rye) seedlings grown from compound-treated seeds at 15 +/-2 degC at 46 uM by thin layer chromatography (reference value: 4.15 +/-0.02 mg/kg dry weight); type: functional
Secale cereale [11] = assay: Toxicity against etiolated Secale cereale (rye) seedlings assessed as dry biomass of seedling grown at 15 +/-2 degC at 46 uM measured at 5 days after compound-treated seed germination (reference value: 1.14 +/-0.01 g); type: organism-based; settings: in vivo, 120 h
Secale cereale [12] = assay: Toxicity against green Secale cereale (rye) seedlings assessed as dry biomass of seedling grown at 15 +/-2 degC at 46 uM measured at 5 days after compound-treated seed germination (reference value: 1.64 +/-0.03 g); type: organism-based; settings: in vivo, 120 h
Secale cereale [13] = assay: Change in alkylresorcinol homologue composition in dry shoots of etiolated Secale cereale (rye) seedlings grown from compound-treated seeds at 29 +/-2 degC assessed as C17:0 content at 46 uM by GC/EI-MS analysis (reference value: 0.48 mg/kg dry weight); type: functional
Secale cereale [14] = assay: Change in alkylresorcinol homologue composition in dry shoots of etiolated Secale cereale (rye) seedlings grown from compound-treated seeds at 15 +/-2 degC assessed as C15:0 content at 46 uM by GC/EI-MS analysis (reference value: 0.43 mg/kg dry weight); type: functional
Secale cereale [15] = assay: Change in alkylresorcinol homologue composition in dry shoots of etiolated Secale cereale (rye) seedlings grown from compound-treated seeds at 22 +/-2 degC assessed as C15:0 content at 46 uM by GC/EI-MS analysis (reference value: 0.60 mg/kg dry weight); type: functional
Secale cereale [16] = assay: Change in alkylresorcinol homologue composition in dry shoots of etiolated Secale cereale (rye) seedlings grown from compound-treated seeds at 29 +/-2 degC assessed as C25:0 content at 46 uM by GC/EI-MS analysis (reference value: 0.06 mg/kg dry weight); type: functional
Secale cereale [17] = assay: Change in alkylresorcinol homologue composition in dry shoots of etiolated Secale cereale (rye) seedlings grown from compound-treated seeds at 15 +/-2 degC assessed as C21:1 content at 46 uM by GC/EI-MS analysis (reference value: 0.34 mg/kg dry weight); type: functional
Secale cereale [18] = assay: Change in alkylresorcinol homologue composition in dry shoots of etiolated Secale cereale (rye) seedlings grown from compound-treated seeds at 22 +/-2 degC assessed as C19:0 content at 46 uM by GC/EI-MS analysis (reference value: 1.83 mg/kg dry weight); type: functional
Secale cereale [19] = assay: Change in alkylresorcinol homologue composition in dry shoots of etiolated Secale cereale (rye) seedlings grown from compound-treated seeds at 29 +/-2 degC assessed as C19:0 content at 46 uM by GC/EI-MS analysis (reference value: 1.06 mg/kg dry weight); type: functional
Secale cereale [20] = assay: Change in alkylresorcinol content in dry shoots of etiolated Secale cereale (rye) seedlings grown from compound-treated seeds at 29 +/-2 degC at 46 uM by thin layer chromatography (reference value: 3.03 +/-0.02 mg/kg dry weight); type: functional
Secale cereale [21] = assay: Change in alkylresorcinol homologue composition in dry shoots of green Secale cereale (rye) seedlings grown from compound-treated seeds at 22 +/-2 degC assessed as C23:0 content at 46 uM by GC/EI-MS analysis (reference value: 0.54 mg/kg dry weight); type: functional
Secale cereale [22] = assay: Change in alkylresorcinol homologue composition in dry shoots of green Secale cereale (rye) seedlings grown from compound-treated seeds at 15 +/-2 degC assessed as C21:0 content at 46 uM by GC/EI-MS analysis (reference value: 0.41 mg/kg dry weight); type: functional
Secale cereale [23] = assay: Change in alkylresorcinol homologue composition in dry shoots of green Secale cereale (rye) seedlings grown from compound-treated seeds at 22 +/-2 degC assessed as C21:0 content at 46 uM by GC/EI-MS analysis (reference value: 0.23 mg/kg dry weight); type: functional
Secale cereale [24] = assay: Change in alkylresorcinol homologue composition in dry shoots of etiolated Secale cereale (rye) seedlings grown from compound-treated seeds at 15 +/-2 degC assessed as C19:1 content at 46 uM by GC/EI-MS analysis (reference value: 0.54 mg/kg dry weight); type: functional
Secale cereale [25] = assay: Change in alkylresorcinol homologue composition in dry shoots of green Secale cereale (rye) seedlings grown from compound-treated seeds at 15 +/-2 degC assessed as C19:0 content at 46 uM by GC/EI-MS analysis (reference value: 0.99 mg/kg dry weight); type: functional

Q: What does the source list for `CCSC(=O)N(CC)C1CCCCC1` [CYCLOATE]?
A: Activity (Secale cereale [1]): 0.1 mg/kg; Activity (Secale cereale [2]): 0.38 mg/kg; Activity (Secale cereale [3]): 0.37 mg/kg; Activity (Secale cereale [4]): 0.36 mg/kg; Activity (Secale cereale [5]): 1.09 mg/kg; Activity (Secale cereale [6]): 1.32 mg/kg; Activity (Secale cereale [7]): 5.42 mg/kg; Activity (Secale cereale [8]): 0.75 mg/kg; Activity (Secale cereale [9]): 0.2 mg/kg; Activity (Secale cereale [10]): 6.67 mg/kg; Activity (Secale cereale [11]): 0.92 g; Activity (Secale cereale [12]): 1.12 g; Activity (Secale cereale [13]): 5.52 mg/kg; Activity (Secale cereale [14]): 1.01 mg/kg; Activity (Secale cereale [15]): 0.1 mg/kg; Activity (Secale cereale [16]): 0.23 mg/kg; Activity (Secale cereale [17]): 0.43 mg/kg; Activity (Secale cereale [18]): 0.7 mg/kg; Activity (Secale cereale [19]): 3.74 mg/kg; Activity (Secale cereale [20]): 14.34 mg/kg; Activity (Secale cereale [21]): 0.13 mg/kg; Activity (Secale cereale [22]): 0.55 mg/kg; Activity (Secale cereale [23]): 0.05 mg/kg; Activity (Secale cereale [24]): 1.08 mg/kg; Activity (Secale cereale [25]): 1.45 mg/kg
